Assay results: ChEMBL document CHEMBL1123029, “Synthesis and biological evaluation of phosphonamidate peptide inhibitors of enkephalinase and angiotensin-converting enzyme” (J Med Chem, 1985)

Target: T1, Neprilysin (Rattus norvegicus, UniProt P07861)
T1 sequence (P07861 whole entry): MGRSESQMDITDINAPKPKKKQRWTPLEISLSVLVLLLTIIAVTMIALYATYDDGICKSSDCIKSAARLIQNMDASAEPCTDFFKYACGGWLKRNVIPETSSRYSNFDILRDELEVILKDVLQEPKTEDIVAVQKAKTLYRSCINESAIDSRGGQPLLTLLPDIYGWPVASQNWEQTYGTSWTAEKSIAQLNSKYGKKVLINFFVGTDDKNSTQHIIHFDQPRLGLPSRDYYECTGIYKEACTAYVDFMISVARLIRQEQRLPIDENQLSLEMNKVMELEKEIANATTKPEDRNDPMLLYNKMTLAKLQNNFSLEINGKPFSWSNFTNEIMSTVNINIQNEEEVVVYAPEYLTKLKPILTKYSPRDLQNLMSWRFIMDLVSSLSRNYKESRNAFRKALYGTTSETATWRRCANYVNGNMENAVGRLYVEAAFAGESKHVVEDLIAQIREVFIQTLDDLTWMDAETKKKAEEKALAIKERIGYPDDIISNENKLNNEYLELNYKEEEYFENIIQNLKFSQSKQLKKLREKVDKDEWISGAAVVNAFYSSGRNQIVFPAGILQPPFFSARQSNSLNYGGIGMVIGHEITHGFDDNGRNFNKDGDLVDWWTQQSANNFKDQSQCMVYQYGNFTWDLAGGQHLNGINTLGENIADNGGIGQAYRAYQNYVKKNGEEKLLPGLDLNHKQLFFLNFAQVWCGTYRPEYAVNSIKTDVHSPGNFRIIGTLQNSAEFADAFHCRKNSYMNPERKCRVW
Experiment: Binding affinity towards enkephalinase (metalloendopeptidase, E.C.3.4.24.11) of rat kidney

Row | SMILES | Ki [µM]
1 | CCOP(=O)(CNC(C)=O)NC(Cc1ccccc1)NC(CCSC)C(=O)O (configuration not stated) | 160
2 | CC(C)CC(NC(Cc1ccccc1)NP(=O)(O)CNC(=O)c1ccccc1)C(=O)O (configuration not stated) | 10.6
3 | CC(C)CC(NC(Cc1ccccc1)NP(=O)(O)CNC(=O)Cc1ccccc1)C(=O)O (configuration not stated) | 80.2
4 | CC(C)CC(NC(Cc1ccccc1)NP(=O)(O)CNC(=O)CCc1ccccc1)C(=O)O (configuration not stated) | 1210
5 | CSCCC(NC(Cc1ccccc1)NP(=O)(O)CNC(C)=O)C(=O)O (configuration not stated) | 0.14
6 | CC(=O)NCP(=O)(O)NC(Cc1ccccc1)NC(CC(C)C)C(=O)O (configuration not stated) | 0.85
7 | CC(C)C[C@H](NP(=O)(O)O[C@@H]1O[C@@H](C)[C@H](O)[C@@H](O)[C@H]1O)C(=O)N[C@@H](Cc1c[nH]c2ccccc12)C(=O)O [PHOSPHORAMIDON] | 0.004
